No end group written: not given here.

One data set relates to CXCR4. The conditions noted are these: cited from earlier work.
A further data set concerns CCR5. Details: method as in PMID 20721836. Conditions: cited from earlier work.
The subject of the next data set is vaginal mucosa. Conditions: cited from earlier work. From the text:
Its activity is directed more towards the virus than to host cells. Some of the known anti-HIV peptides such as defensins have better selectivity index, but many of such peptides/molecules act as a double edged-sword. These peptides inhibit HIV infection but also lead to inflammation and/or potentiate pathogen invasion.

Another data set has as its system HIV-host cell fusion. Conditions: cited from earlier work.
The next data set has as its system HIV. The conditions noted are these: cited from earlier work. The text has this: HIV-1 infection can be targeted at various stages, for example, viral entry, viral replication or assembly of viral components. HIV entry into the host cells is facilitated by binding of viral envelope glycoprotein (gp120) to host CD4 receptor [3, 4]. CD4-gp120 interaction initiates a cascade of events that stimulates gp41 to promote viral and host membrane fusion. Inhibition of gp120-CD4 interaction or virus-host cell fusion thus appears to be an attractive strategy to prevent HIV-1 infection. Towards this, significant advances have been made. […] Moreover, some of the AMPs cause adverse effects on vaginal commensals like lactobacilli which are required to maintain low pH in vaginal mucosa.

In a further data set the test system is HIV-1 IIIB and ADA5. Kind of data set: Time-of-addition assay in TZM-bl cells. Conditions: 71.40 μM.
The test system of another data set is gp120 of HIV-1 IIIB. Put plainly: Binding ELISA, gp120 of HIV-1 IIIB. The conditions noted are these: for Binding of designed peptides to gp120: peptide-coated plate, 500ng gp120, 2 hrs at 37°C, 492nm (S1 Fig). How it is done:
(§1) After blocking with 3% bovine serum albumin (BSA) in PBS for 30 min, 100 μl of gp120 (100ng/well) in PBS-0.05% BSA was added to each well and incubated for 2 hrs at 37°C. After three washings with PBS-Tween-20 (PBS-T), cells were incubated with anti-gp120 antibody at 1:200 dilution and then with horse radish peroxidase-(HRP) conjugated secondary goat anti-human antibody (1:10000 dilution) for 1 hr at 37°C. This was followed by incubation with O-phenylenediamine for 20 min. The absorbance was measured at 492 nm on a microplate ELISA reader (ELx-800, Bio-Tek Instruments, USA). Background values obtained in the wells without HbAHP-25 were subtracted from the absorbance values from wells having all other reagents.
Supplementary file pone.0124839.s001.tif: S1 Fig Binding of designed peptides to gp120. Peptides that were designed in silico were evaluated for their binding to gp120 of HIV-1 IIIB. Peptides were coated on 96 well microtiter plate for 16 hrs and then incubated with 500ng of gp120 for 2 hrs at 37°C. This was followed by addition of anti-gp120 antibody, and absorbance was read at 492nm. Background absorbance was subtracted from the wells where peptides were not coated. […] (TIF) Click here for additional data file.

The test system of the next data set is gp120 of HIV-1 BaL. Kind of data set: Binding ELISA, gp120 of HIV-1 BaL. Conditions: 2.2–71.40 μM coated, gp120 100ng/well. How it is done: as §1
In the next data set the test system is HIV-1 IIIB. Kind of data set: Anti-HIV activity, p24 antigen assay in H9 cells. It counts as cell-based. On the set-up: key to Anti-HIV activity: +: moderate; ++: significant; NA: No activity. The conditions noted are these: for Anti-HIV activity (in words): 0.1 MoI HIV-1 IIIB pre-incubated with peptide, H9 cells, p24 on day 4. How it is done:
Supplementary file pone.0124839.s002.tif: S2 Fig Anti-HIV activity of 3 designed peptides. Anti HIV activity of three peptides was determined using H9 cells. H9 cells were infected for 4 hrs with 0.1 MoI of HIV-1 IIIB pre-incubated with various concentrations of peptides. Peptides were added post infection as well. Supernatant was collected on day 4 post infection, and p24 antigen assay was performed. […] (TIF) Click here for additional data file.
Supplementary file pone.0124839.s003.tif: S3 Fig Anti-HIV activity of peptide analogues of peptide 1. After modifying the peptide 1, we performed anti-HIV assay as earlier. HIV-1 IIIB was pre-incubated with peptide analogues for 1 hr and then added to H9 cells for 4 hrs. Levels of p24 levels were determined on day 4 post infection. […] (TIF) Click here for additional data file.

Method for HIV-1 IIIB and ADA5: Luciferase activity was measured at 48 hrs post treatment using Luminometer (ELx-800, Bio-Tek Instruments, USA). VRC01 (0.1 μM) antibody was used as a positive control.

Turning to `c1cc(CN2CCCNCCNCCCNCC2)ccc1CN1CCCNCCNCCCNCC1` [AMD3100], in the data set on CXCR4, the CXCR4 antagonism result was “CXCR4 antagonists”.

For the compound `CCCCOCCOc1ccc(-c2ccc3c(c2)/C=C(/C(=O)Nc2ccc([S@@+]([O-])Cc4cncn4CCC)cc2)CCCN3CC(C)C)cc1` [Cencriviroc], in the data set with CCR5, the CCR5 antagonism result was “CCR5 antagonists”.

Take `CCCCCCCCCc1ccc(OCCOCCOCCOCCOCCOCCOCCOCCOCCO)cc1` [Nonoxynol-9]: the “Effects on vaginal mucosa” value in the data set on vaginal mucosa is listed as “caused detrimental effects on vaginal mucosa”.

Enfuvirtide: the “Effect on HIV-host cell fusion” value with HIV-host cell fusion is recorded as “interfere with the HIV-host cell fusion”. In addition, in the data set on HIV, the “Alleviation of HIV infections” value was “alleviate HIV infections effectively”. In addition, the “Resistance on long term treatment” value with HIV (mutations in gp41) is “leads to resistance”.

As for “PLVKDVLRSLCNHAHKCVTLALLRH [Scrambled peptide(sP), 25 mer scrambled peptide, negative control]”, the “Inhibition (scrambled control)” value in the data set on HIV-1 IIIB and ADA5 was “no inhibition”. The “Binding to recombinant gp120 of HIV-1 IIIB” value in the data set with gp120 of HIV-1 IIIB (ELISA, 2.2–71.40 μM coated, gp120 100ng/well) is recorded as “did not bind”. Besides, the “Binding to recombinant gp120 of HIV-1 BaL” value in the data set with gp120 of HIV-1 BaL was “did not bind”.

For the compound “SAQVKGHGKKVADALTNAVAHVDDMPNAL [Peptide-2, Hb-α subunit derived 29-residue peptide (52–80)]”, the “Binding of designed peptides to gp120” value in the data set on gp120 of HIV-1 IIIB is recorded as “failed to show any binding”. Further, the “Anti-HIV activity (in words)” value with HIV-1 IIIB (listed as peptide 2) is given as “failed to demonstrate any activity”; in the data set with HIV-1 IIIB (listed as peptide-2), “did not show any anti-HIV-1 activity”.

In the case of “VKGHGKKVADALTNAVAHVDDMPNALSAL [Peptide-3, Hb-α subunit derived 29-residue peptide (55–83)]”, the “Binding of designed peptides to gp120” value with gp120 of HIV-1 IIIB is listed as “showed binding to gp120 of HIV-1 IIIB”. Besides, the “Anti-HIV activity (in words)” value in the data set with HIV-1 IIIB is on record as “showed anti-HIV activity”. The Anti-HIV activity entry in the data set with HIV-1 IIIB (class symbols of Table 1, HIV-1 IIIB in H9 cells, p24 (S2, S3 Fig)) is “+”.

As to “human defensin-6: antimicrobial peptide, printed as human defensin-5 and 6 (AFTCHCRRSCYSTEYSYGTCTVMGINHRFCCL; ends and bridges not checked; cysteine pairing not given here; UniProt Q01524 69-100, looked up)”, in the data set on HIV, the “Effect on HIV infection” value is reported as “exacerbate HIV infection”.

“indolicidin: natural antimicrobial peptide (ILPWKWPWWPWRR; not fully specified (C-terminus); ends and bridges not checked; UniProt P33046 131-143, looked up)”: in the data set with HIV, the Anti-HIV activity entry was “reported to have anti-HIV activity”.

The values above are taken from paper PMC4411102 (PLoS ONE, 2015).
